In the NIST ThermoML archive (doi:10.1016/j.tca.2011.06.003):

Assay: xn = mol fraction of the nth substance listed
Conditions: 101 kPa, Liquid; for speed of sound: Sing-around technique in a fixed-path interferometer; for mass density: Vibrating tube method

NCCNCCN [di(2-aminoethyl)amine] + CC(C)O
Conditions	mass density [kg/m3]	speed of sound [m/s]	viscosity [mPa·s]
293.15 K, x1 = 0.0534	803.892	1206.4	–
293.15 K, x1 = 0.1022	818.972	1244.9	–
293.15 K, x1 = 0.1556	830.953	1283.2	–
293.15 K, x1 = 0.2053	842.389	1318.6	–
293.15 K, x1 = 0.2541	852.667	1350.5	–
293.15 K, x1 = 0.3083	863.147	1383.9	–
293.15 K, x1 = 0.4044	880.002	1438.7	–
293.15 K, x1 = 0.5025	894.43	1488.6	–
293.15 K, x1 = 0.6122	909.336	1538.2	–
293.15 K, x1 = 0.711	921.252	1583.2	–
293.15 K, x1 = 0.8021	930.895	1618.9	–
293.15 K, x1 = 0.8555	936.343	1638	–
293.15 K, x1 = 0.9092	941.621	1658.5	–
293.15 K, x1 = 0.953	945.719	1673.3	–
298.15 K, x1 = 0.0532	–	–	2.514
298.15 K, x1 = 0.0534	799.63	1188.7	–
298.15 K, x1 = 0.1022	814.391	1227.2	2.884
298.15 K, x1 = 0.1556	826.675	1265.5	3.313
298.15 K, x1 = 0.2053	838.104	1300.9	3.628
298.15 K, x1 = 0.2541	848.377	1332.6	3.97
298.15 K, x1 = 0.3083	858.864	1365.9	4.268
298.15 K, x1 = 0.4044	875.743	1420.7	4.708
298.15 K, x1 = 0.5025	890.185	1470	4.984
298.15 K, x1 = 0.6122	905.106	1518.9	5.192
298.15 K, x1 = 0.711	917.035	1563.1	5.223
298.15 K, x1 = 0.8021	926.667	1599.5	5.286
298.15 K, x1 = 0.8555	932.115	1618.5	5.383
298.15 K, x1 = 0.9092	937.389	1638.7	5.441
298.15 K, x1 = 0.953	941.486	1653.4	5.54
303.15 K, x1 = 0.0532	–	–	2.087
303.15 K, x1 = 0.0534	795.321	1171.2	–
303.15 K, x1 = 0.1022	809.803	1209.5	2.388
303.15 K, x1 = 0.1556	822.362	1247.7	2.697
303.15 K, x1 = 0.2053	833.79	1282.9	2.976
303.15 K, x1 = 0.2541	844.065	1314.6	3.217
303.15 K, x1 = 0.3083	854.559	1347.8	3.423
303.15 K, x1 = 0.4044	871.471	1402.2	3.721
303.15 K, x1 = 0.5025	885.922	1452.9	3.901
303.15 K, x1 = 0.6122	900.866	1503.2	4.08
303.15 K, x1 = 0.711	912.782	1543	4.184
303.15 K, x1 = 0.8021	922.433	1579.1	4.264
303.15 K, x1 = 0.8555	927.887	1599	4.357
303.15 K, x1 = 0.9092	933.158	1619	4.423
303.15 K, x1 = 0.953	937.25	1634.5	4.47
308.15 K, x1 = 0.0532	–	–	1.858
308.15 K, x1 = 0.0534	790.957	1153.7	–
308.15 K, x1 = 0.1022	805.422	1191.8	2.064
308.15 K, x1 = 0.1556	818.019	1230	2.315
308.15 K, x1 = 0.2053	829.45	1265.1	2.526
308.15 K, x1 = 0.2541	839.731	1296.8	2.708
308.15 K, x1 = 0.3083	850.238	1329.7	2.875
308.15 K, x1 = 0.4044	867.103	1383.3	3.121
308.15 K, x1 = 0.5025	881.653	1432.7	3.296
308.15 K, x1 = 0.6122	896.616	1483.5	3.442
308.15 K, x1 = 0.711	908.535	1525.3	3.539
308.15 K, x1 = 0.8021	918.202	1561.5	3.608
308.15 K, x1 = 0.8555	923.66	1580.4	3.683
308.15 K, x1 = 0.9092	928.927	1599.6	3.734
308.15 K, x1 = 0.953	933.022	1615.1	3.771
313.15 K, x1 = 0.0534	786.529	1136.1	–
313.15 K, x1 = 0.1022	801.012	1174.3	–
313.15 K, x1 = 0.1556	813.627	1212.7	–
313.15 K, x1 = 0.2053	825.068	1247.5	–
313.15 K, x1 = 0.2541	835.36	1278.6	–
313.15 K, x1 = 0.3083	845.885	1311.4	–
313.15 K, x1 = 0.4044	862.786	1365.6	–
313.15 K, x1 = 0.5025	877.353	1415.7	–
313.15 K, x1 = 0.6122	892.409	1467	–
313.15 K, x1 = 0.711	904.278	1509.1	–
313.15 K, x1 = 0.8021	913.964	1543.4	–
313.15 K, x1 = 0.8555	919.421	1562.1	–
313.15 K, x1 = 0.9092	924.691	1580.8	–
313.15 K, x1 = 0.953	928.787	1595.2	–
